# Data as given in patent US10111847B2, “Compounds and methods for modulating vascular injury” (The Regents of the University of California, priority 2012, dated 2018).
# Tests used:
# carotid artery = experiment: Mouse carotid artery ligation model, neointima formation; type: in vivo, FVB Mice; settings: intraperitoneal 100 ng/dose on days 0, 1, 3, 5 and 7; sacrificed at 14 days
# Method: To examine the potential therapeutic effects of systemic administration of pro-resolving mediators in acute vascular injury, a standardized mouse model of carotid ligation was employed. FVB Mice (N=23) were treated with intraperitoneal administration of RvD2 (100 ng/dose), 7R Mar-1 (100 ng/dose) or vehicle on days 0 (4 hrs prior to carotid injury), 1, 3, 5 and 7. Total dose received was 500 ng/mouse. Unilateral carotid ligation was performed as a standardized model of vascular injury, induced by low shear. Animals were then sacrificed at 14 days and perfusion-fixed vessels explanted for analysis. Following elastin staining, neointima (NI) and medial (M) compartments were measured by a blinded observer, and ratios (area and average wall thickness) calculated. Analysis was performed at mid CCA level (2.5 mm from ligature).
# FIG. 22. (A)-(C), depict a cross-section of a carotid artery at mid CCA level (2.5 mm from ligature) from carotid ligation mouse model administered vehicle (A), RvD2 (B), or 7R-Mar-1 (C). (D)-(E) depict NUM ratio of the cross-section of the carotid artery at mid CCA level from carotid ligation mouse model administered vehicle, RvD2, or 7R-Mar-1. […]
# IKKα/β subunit [1] = experiment: TNFα induced phosphorylation of IKKα/β in sv-VSMCs, western blot; type: cell-based, human; settings: 100 nm, 30 min; TNFα 10 ng/ml 15 min
# Method: (§1) Mar-1. VSMCs and ECs were lysed in buffer (20 mM Tris-Hcl, 137 mM NaCl, 10% Glycerol, 1% NP-40) with protease and phosphatase inhibitors (Halt inhibitor capsules, Pierce, Inc) by sonication on ice. The lysates were instantly snap frozen in liquid nitrogen and thawed back later for western blotting. After centrifugation (15,000 g for 20 minutes), the whole cell extract (supernatant) was collected and was heated at 100° C. in Laemlli buffer for 6 minutes. Lysates were run on Mini-Protean TGX gels
# (§2) (Biorad) and transferred on PVDF membranes which were probed with appropriate primary and secondary antibodies and visualized for quantitation using q-dot nanocrystals (Life Technologies, Inc).
# (§3) Cells were pretreated with 100 nm of 7S/7R-Maresin-1 for 30 min, followed by TNFα (10 ng/ml for VSMC and 1 ng/ml for EC) for 15 min. Whole cell lysates were collected and probed for pan and phospho IKK (Cell Signaling Inc.).
# (§4) FIG. 18. IKK-phospho and total IKK western blotting image is representative of three independent experiments. Bar graph represents net quantitative densitometry analysis. N=3. P≤0.05, One-way ANOVA with Dunnett's post hoc test. *: P≤0.05 compared to control, unpaired t-test. †: P≤0.05 compared to TNFα, unpaired t-test. Error bars: SEM.
# IKKα/β subunit [2] = experiment: TNFα induced phosphorylation of IKKα/β in sv-ECs, western blot; type: cell-based, human; settings: 100 nm, 30 min; TNFα 1 ng/ml 15 min
# Method: as §1, §2, §3, §4
# [3] = test system: human saphenous vein vascular smooth muscle (sv-VSMC) cells; experiment: TNFα induced superoxide production (DHE) in sv-VSMC (Maresin-1); type: cell-based; settings: 100 nM; TNFα 10 ng/ml 4 hr
# Method: Mar-1. Cells were grown in 8-well chamber slides at a density of 15000 cells/well for 2 days for VSMCs and 50000 cells/well for 2 days for ECs in a 96 well plate. After treatments, cells were incubated with dihydroethidium (DHE, 3 μM, Invitrogen) or CellRox (Invitrogen Inc, 5 μM for ECs) in media for 30 minutes at 37° C. in a humidified chamber with 5% CO2 protected from light. DAPI nuclear counter staining was utilized for DHE staining. For DHE, fluorescence was detected with TRITC filter allowing the detection of the DHE emission wavelength of 590-620 nm. Fluorescence quantitation was performed using ImageJ analysis software. For ECs, fluorescence measurements were taken using a Spectramax M2e plate reader.
# FIGS. 13A-13D. Representative merged images of DHE staining, counterstained with DAPI. (A), Negative control. (B), TNFα at 10 ng/ml for 4 hr. […] (E) Quantitative comparison of DHE staining intensity in the nucleus of human saphenous vein vascular smooth muscle (sv-VSMC) cells, treated with TNFα and 7S and 7R-Maresin-1 with and without pertussis toxin. (F) Quantitative comparison of cellular ROS production by CellRox (Life technologies, Carlsbad, Calif.) in human saphenous vein endothelial (EC) cells treated with TNFα (1 ng/nil) and 7S-Maresin-1 (N>=3). […]
# p65 subunit = experiment: Nuclear translocation of p65 subunit in sv-VSMCs (immunofluorescence); type: cell-based, human; settings: 100 nm, 30 min; TNFα 10 ng/ml 2 hrs
# Method: Immunofluorescence for p65 (RelA): 15000 VSMCs or 30000 ECs were seeded on a 8-well chamber slide. Cells received 30 min of Maresin-1 pretreatment, followed by TNF-α for 2 hr. Cells were fixed in 2% paraformaldehyde, followed by permeabilization with ice-cold acetone (10 min) and 1% Triton X-100 (20 min). Cells were incubated overnight in a humidified chamber with anti-p65 antibody (Santa Cruz Biotechnology Inc.) followed by Alexa-fluor 488 tagged secondary antibody (Life Technologies) and were visualized under a fluorescent microscope.
# FIGS. 16A-16D. VSMCs were grown in chamber slides and treated with vehicle or 100 nm of 7S or 7R-Maresin-1 with/without 10 ng/ml pertussis toxin for 30 min, followed by TNFα (10 ng/ml) for 2 hrs. Cells were fixed and subsequently stained with anti-p65 (Santa Cruz Biotechnology) and secondary antibodies (Alexa-488). (A-D) Representative images of Ctrl (A), TNFα (B), 7R-Maresin-1+TNFα (C) and 7R-Maresin-1+pertussis toxin (10 ng/ml)+TNFα. (E) Mean fluorescence of nucleus and cytoplasm were quantified from all groups and the net result of the ratio of nucleus over cytoplasmic mean fluorescence is depicted in the bar graph, as a measure of relative p65 nuclear translocation. (N>=3). […]
# MCP-1 = MCP-1 expression in TNF-α stimulated VSMCs by qRT-PCR; type: cell-based, human; settings: 10, 100 nM; TNF-α 10 ng/ml 18 hours; P<0.05
# Method: FIGS. 15A-15D. Representative images of Calcein-AM labeled U937 monocytes adhered to human sv-VSMCs pretreated with vehicle (A, B) or 7S-Maresin-1 (C) or 7S-Maresin-1 and pertussis toxin (D) for 30 min, followed by TNFα at 10 ng/ml for 4 hr (B, C, D). (E) Quantitative analysis of U937 adhesion assay in human sv-VSMCs and (F) human sv-ECs (1 ng/ml TNFα used for EC cells). P≤0.05, One-way ANOVA with Dunnett's post hoc test. *: P≤0.05 compared to control, unpaired t-test. †: P≤0.05 compared to TNFα, unpaired t-test. ‡: P≤0.05 compared to TNFα+7S-Maresin-1, unpaired t-test. (G) VSMCs were pretreated with 7S-Maresin-1 or vehicle for 30 min, followed by TNFα at 10 ng/ml for 4 hr. Whole cell lysates were blotted for VCAM-1 (Pierce Inc.) and beta-actin (Sigma). VCAM-1 and beta-actin western blotting image is representative of three independent experiments. Bar graph represents net quantitative densitometry analysis. N=3. P=0.06, One-way ANOVA with Kruskal Wallis nonparametric test. P=0.07 of TNFα, compared to control, Mann Whitney test. P=0.20 of 7S-Maresin-1 at 10 nm and 100 nm compared to TNFα, Mann Whitney test. Error bars: SEM. […] Expression of MCP-1 was measured by qRT-PCR, and normalized to unstimulated cells (n=3, results are mean±SEM, P<0.05 for Mar-1 (10 and 100 nM) vs TNF alone, unpaired t-test).
Compound,neointima formation following carotid artery ligation (carotid artery),TNFα induced phosphorylation of IKKα/β subunit in human sv-VSMCs (IKKα/β subunit [1]),TNFα induced phosphorylation of IKKα/β subunit in human sv-ECs (IKKα/β subunit [2]),TNF-α-induced superoxide production in VSMC [3],nuclear translocation of p65 subunit in human sv-VSMCs (p65 subunit),MCP-1 expression by TNF-α stimulated VSMCs (MCP-1)
"CC/C=C\C/C=C\C[C@@H](O)\C=C/C=C/C=C/[C@@H](O)C/C=C\CCC(=O)O [7R-Maresin-1, 7R,14S-dihydroxydocosa-4Z,8E,10E,12Z,16Z,19Z-hexaenoic acid]",Reduces,Reduce,Reduce,Reduce,Inhibit,
"CC/C=C\C/C=C\CC(O)\C=C/C=C/C=C/C(O)C/C=C\CCC(=O)O (stereo not drawn) [Mar-1, maresin 1 (7, 14-dihydroxy DHA)]",,,,,,reduced
